Source: doi:10.1101/2020.07.08.194076v1 (biorxiv, 2020)

Test system: SlG3
Test: GGPPS enzyme assay
Type: biochemical, Solanum lycopersicum

Row | Compound | Km (co-substrate 100 µM IPP) | Km (co-substrate 100 µM DMAPP)
1 | CC(C)=CCOP(=O)(O)OP(=O)(O)O [DMAPP] | 45.8 ± 6.81 µM | 
2 | C=C(C)CCOP(=O)(O)OP(=O)(O)O [IPP] |  | 45.9 ± 4.86 µM
